# Measurements published in patent US20170095440A1, “METHOD OF TREATING CANINE PANCREATITIS” (CK9, LLC, priority 2014, published 2017).
# “Also recorded” adds a separate entry of the source.
# Legend:
# [1] = tested on: dogs with suspected chronic pancreatitis; experiment: Serum canine pancreas-specific lipase (cPL/cPLI, Spec cPL) before and after treatment, clinical trial; assay type: in vivo, dog; conditions: for Change in serum cPL/cPLI, pre- vs post-treatment (Wilcoxon matched-pair): methanesulfonate
# Method: (§1) Dogs were identified by screening current submissions to the Gastrointestinal Laboratory at Texas A&M indicative of pancreatitis (canine pancreas-specific lipase≧400 μg/L) using an immunoassay for measurement of canine pancreas-specific lipase in canine serum known as the spec CPL® Test (IDEXX, Laboratories). A number of potential study participants were directly referred to the investigator by veterinarians, based on positive pet-side SNAP cPL® Test (IDEXX Laboratories, Westbrook, Me., USA) results and concomitant clinical signs. After ascertaining individual suitability of a patient with the referring veterinarian, serum canine pancreas-specific lipase concentration, serum biochemistry profile, and complete blood count were evaluated or re-evaluated 12±4 days after collection of the initial sample submission to the Gastrointestinal Laboratory. Based on the assumption that consecutive canine pancreas-specific lipase elevations indicate chronic pancreatitis, enrollment was offered for patients with canine pancreas-specific lipase concentrations≧400 μg/L, serum triglyceride concentrations below 500 mg/dL, and no indication of hepatic, renal, or other organ disease. […] Owner consent was required prior to phlebotomy and for enrollment into the trial.
# […] […] Individual patients were medicated for between 21 to 31 days.
# (§2) Blood samples were collected before beginning the treatment and after completion of the treatment period. Complete blood count (red blood cell count, hematocrit, mean corpuscular volume, mean corpuscular hemoglobin, mean corpuscular hemoglobin concentration, differential and absolute white blood cell count, red blood cell count, hemoglobin, platelet estimate, red blood cell morphology, white blood cell morphology, and hemoparasites) was evaluated at the Texas Veterinary Medical Diagnostic Laboratory (TVMDL). A serum chemistry profile with electrolytes (glucose, blood urea nitrogen, creatinine, calcium, phosphorus, albumin, total protein, total bilirubin, alkaline phosphatase, alanine amino transferase, aspartate amino transferase, γ-glutamyl transferase, cholesterol, triglycerides, globuline, sodium, potassium, and chloride) was performed on a SIRRUS analyzer (Stanbio, Boerne, Tex., USA). Serum concentrations of cPL (RI: 0-200 μg/L; Spec cPL® IDEXX Laboratories, Westbrook, Me., USA), cTLI (RI: 5.7-45.2 μg/L; Canine TLI DOUBLE ANTIBODY®, Siemens Healthcare Diagnostics, Los Angeles, Calif., USA), cobalamin (RI: 251-908 ng/L), and folate (RI: 7.7-24.4 μg/L; Immulite 2000®, Siemens Healthcare Diagnostics Inc., Deerfield, Ill., USA), canine specific C-reactive protein (RI: 0-7.6 mg/L, Tridelta Development Limited, Maynooth, CO. Kildare, Ireland), S100A12 (RI: 56-331 μg/L, Gastrointestinal Laboratory in-house radioimmunoassay), and TGF-β1 (RI: 38-72 ng/mL; Quantikine® ELISA, R&D Systems, Minneapolis, […]., USA) were performed at the Gastrointestinal Lab at Texas A&M University.
# Additionally, samples that exceeded the working range of the Spec cPL assay were diluted and re-analyzed.
# (§3) Pre-treatment and post-treatment results for all diagnostic tests were statistically analyzed using Prism 6 (GraphPad Software, La Jolla, Calif., USA). The D'Agostino-Pearson omnibus test was used to evaluate all datasets for Gaussian distribution. Groups were compared using a paired t-test for normally-distributed data sets and a Wilcoxon matched-pairs test when Gaussian distribution could not be assumed. Mean values and standard deviation are reported for data sets with Gaussian distribution. Median and minimum/maximum values are reported for data sets where Gaussian distribution could not be assumed. The significance threshold was set at p=0.05.
# [2] = tested on: dogs with suspected chronic pancreatitis; experiment: Serum TGF-β1 before and after treatment, clinical trial; assay type: in vivo, dog; conditions: for Change in serum TGF-β1, pre- vs post-treatment (paired t-test): methanesulfonate
# Method: (§4) Treatment effects on overall health status, quality of life, and clinical signs were also evaluated with serum biochemistry profiles, complete blood counts, and owner questionnaires.
# as §1
# (§5) Twelve enrolled dogs received camostat capsules at a dosage of 4 mg/kg q 8 hrs, for a total dose of 12 mg/kg q 24 hrs. […] Individual patients were medicated for between 21 to 31 days.
# as §2, §3
# [3] = tested on: dogs with suspected chronic pancreatitis; experiment: Adverse drug reactions, complete blood count and serum biochemistry profile, clinical trial; assay type: in vivo, dog
# Method: as §4, §5
# (§6) Patients were treated at home and their overall health was monitored by their owners and the referring physician.
# as §2, §3
# [4] = tested on: dogs with suspected chronic pancreatitis; experiment: Quality of life reported by owners and referring vets, clinical trial; assay type: in vivo, dog
# Method: as §4, §6
# Owners of enrolled dogs received instructions to refrain from changing the dog's diet during the trial period and to report on the overall health status and quality of life of their pet.
# [5] = tested on: TGF-β1; conditions: one published study, cited from earlier work
# [6] = target: trypsin (Homo sapiens, UniProt P07477); conditions: cited from earlier work
# [7] = target: plasmin (Homo sapiens, UniProt P00747); conditions: cited from earlier work
# plasmin, sequence (P00747 581-810 limits assumed, species assumed): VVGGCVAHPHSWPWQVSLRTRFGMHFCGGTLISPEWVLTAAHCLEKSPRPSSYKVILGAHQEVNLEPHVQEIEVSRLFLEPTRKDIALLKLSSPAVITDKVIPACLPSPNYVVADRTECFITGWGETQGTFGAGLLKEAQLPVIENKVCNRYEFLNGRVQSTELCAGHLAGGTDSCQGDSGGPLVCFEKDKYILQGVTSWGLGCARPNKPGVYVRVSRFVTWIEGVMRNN
# plasmin, sequence (P00747 97-580 partner limits assumed, species assumed): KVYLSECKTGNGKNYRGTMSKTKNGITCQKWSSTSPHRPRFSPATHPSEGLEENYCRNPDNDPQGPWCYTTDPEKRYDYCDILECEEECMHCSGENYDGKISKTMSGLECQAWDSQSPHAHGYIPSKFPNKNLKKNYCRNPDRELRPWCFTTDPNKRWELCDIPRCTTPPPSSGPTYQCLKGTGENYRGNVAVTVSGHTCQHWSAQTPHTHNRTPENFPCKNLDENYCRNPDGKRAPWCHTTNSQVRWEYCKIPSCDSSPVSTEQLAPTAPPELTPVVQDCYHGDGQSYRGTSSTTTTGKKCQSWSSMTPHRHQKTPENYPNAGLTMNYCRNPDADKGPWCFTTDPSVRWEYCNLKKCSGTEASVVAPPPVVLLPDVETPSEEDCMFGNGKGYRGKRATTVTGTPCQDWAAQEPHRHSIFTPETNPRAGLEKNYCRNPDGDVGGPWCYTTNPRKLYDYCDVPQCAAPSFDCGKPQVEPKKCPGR
# [8] = all treated dogs combined, n=29, trend towards a decrease
smiles,measurement,setting,value
"CN(C)C(=O)COC(=O)Cc1ccc(OC(=O)c2ccc(NC(=N)N)cc2)cc1 [Camostat Mesilate, N,N-dimethylcarbamoylmethyl-4-(4-guanidinobenzoyloxy)phenylacetate methanesulfonate]",Serum cPL/cPLI concentration post-treatment (median),"[1]; 4 mg/kg q 8 hrs oral capsules, 21-31 days, n=12, pre-treatment median 501, post range 125-2,836, p=0.9697",453 µg/L
same,"Change in serum cPL/cPLI, pre- vs post-treatment (Wilcoxon matched-pair)","[1]; 4 mg/kg q 8 hrs, n=12",no significant difference; also recorded: did not change significantly
same,"Change in serum cPL/cPLI, pre- vs post-treatment (Wilcoxon matched-pair)","[1]; 8 mg/kg q 8 hrs (24 mg/kg q d), n=17",significant difference; also recorded: statistically significant change; also recorded: statistically significant decrease
same,Serum cPL/cPLI concentration post-treatment (median),"[1]; 8 mg/kg q 8 hrs oral capsules, 21-31 days, n=17, pre-treatment median 882, post range 193-2,580, p=0.0232",633 µg/L
same,Serum cPL/cPLI concentration post-treatment (median),"[1]; all treated dogs combined, n=29, pre-treatment median 690, post range 125-2,836, p=0.0903 or 0.0562",514 µg/L
same,"Change in serum cPL/cPLI, pre- vs post-treatment (Wilcoxon matched-pair)",[1]; [8],no statistically significant difference
same,"Change in serum TGF-β1, pre- vs post-treatment (paired t-test)","[2]; 4 mg/kg q 8 hrs, n=12",no significant difference; also recorded: did not change significantly
same,Serum TGF-β1 concentration post-treatment (mean),"[2]; 4 mg/kg q 8 hrs, n=12, pre-treatment mean 45, post SD ±8, p=0.3679",43 ng/mL
same,"Change in serum TGF-β1, pre- vs post-treatment (paired t-test)","[2]; 8 mg/kg q 8 hrs, n=17",no significant difference; also recorded: did not change significantly
same,Serum TGF-β1 concentration post-treatment (mean),"[2]; 8 mg/kg q 8 hrs, n=17, pre-treatment mean 47, post SD ±12, p=0.1686",40 ng/mL
same,Serum TGF-β1 concentration post-treatment (mean),"[2]; all treated dogs combined, n=29, pre-treatment mean 46, post SD ±11, p=0.0986",41 ng/mL
same,"Change in serum TGF-β1, pre- vs post-treatment (paired t-test)",[2]; [8],no statistically significant difference; also recorded: did not lead to any significant changes
same,Adverse drug reactions,"[3]; 4 mg/kg q 8 hrs, 12 dogs, reported in two dogs",increased flatulence
same,Adverse drug reactions,"[3]; 8 mg/kg q 8 hrs, 17 dogs, each sign in one dog, methanesulfonate",pruritus in one front paw; also recorded: increased flatulence
same,"Complete blood count and serum biochemistry parameters, pre- vs post-treatment",[3]; all treated dogs,no statistically significant differences
same,Increase in serum aspartate amino transferase activity after treatment,[3]; another individual dog,6 fold
same,Side effects overall,"[3]; both dosages (12 or 24 mg/kg q d), 26±5 days",very mild side effects
same,Other clinical signs suggestive of an adverse drug reaction,[3]; either group (4 or 8 mg/kg q 8 hrs),No other clinical signs suggestive of an adverse drug reaction were observed
same,Increase in serum γ-glutamyl transferase activity after treatment,[3]; one individual dog,35 fold
same,Increase in aspartate amino transferase activity after treatment,[3]; one individual dog (same dog as the γ-glutamyl transferase increase),6 fold
same,"Quality of life, reports from referring vets and pet owners",[4]; 24 mg/kg q d orally,subjective improvement of quality of life in some patients
same,"Quality of life, overall consensus from pet owners",[4]; all treated dogs,had improved
same,Hepatic stellate cell activation and hepatic fibrosis,[5],attenuated hepatic stellate cell activation as well as hepatic fibrosis
same,Systemic or local side effects,[5],without entailing apparent systemic or local side effects
same,TGF-β1 concentrations,[5]; methanesulfonate,decreased TGF-β1 concentrations; also recorded: suppressed
same,Anti-trypsin activity,[6],pronounced anti-trypsin
same,Anti-plasmin activity,[7],anti-plasmin activity
